{"source": "patent US20090258069A1", "about": "“Delivery of LFA-1 antagonists to the gastrointestinal system” (priority 2008, published 2009)", "test_system": "tester strains", "assay": "In vitro Ames bacterial reverse mutation assay", "assay_type": "cell-based", "details": "presence or absence of microsomal (S9) enzymes", "text": "Therefore, Compound 12 was judged to be not mutagenic."}
{"compound": "CS(=O)(=O)c1cccc(C[C@H](NC(=O)c2c(Cl)cc3c(c2Cl)CCN(C(=O)c2ccc4ccoc4c2)C3)C(=O)O)c1", "note": "[Compound 12]", "values": [{"measurement": "Ames assay, revertants per plate", "result": "not mutagenic"}]}
